{"source": "paper PMC12281424", "about": "“A Rac-specific competitive inhibitor of guanine nucleotide binding reduces metastasis in triple-negative breast cancer” (Cell Reports Medicine, 2025)", "key": {"[1]": {"molecular_target": "HIPK2(h) (Homo sapiens, UniProt Q9H2X6)", "assay": "Kinase Profiler", "format": "biochemical", "description": "(§1) The kinase profiler was performed by the company Eurofins (Discovery, Panlab and Cerep)."}, "[2]": {"molecular_target": "CLIK1(h) (Homo sapiens, UniProt Q8TDR2)", "assay": "Kinase Profiler", "format": "biochemical", "description": "as §1"}, "[3]": {"molecular_target": "Rsk4(h) (Homo sapiens, UniProt Q9UK32)", "assay": "Kinase Profiler", "format": "biochemical", "description": "as §1"}, "[4]": {"molecular_target": "Adrenergic α1D (Homo sapiens, UniProt P25100)", "sequence (P25100 whole entry)": "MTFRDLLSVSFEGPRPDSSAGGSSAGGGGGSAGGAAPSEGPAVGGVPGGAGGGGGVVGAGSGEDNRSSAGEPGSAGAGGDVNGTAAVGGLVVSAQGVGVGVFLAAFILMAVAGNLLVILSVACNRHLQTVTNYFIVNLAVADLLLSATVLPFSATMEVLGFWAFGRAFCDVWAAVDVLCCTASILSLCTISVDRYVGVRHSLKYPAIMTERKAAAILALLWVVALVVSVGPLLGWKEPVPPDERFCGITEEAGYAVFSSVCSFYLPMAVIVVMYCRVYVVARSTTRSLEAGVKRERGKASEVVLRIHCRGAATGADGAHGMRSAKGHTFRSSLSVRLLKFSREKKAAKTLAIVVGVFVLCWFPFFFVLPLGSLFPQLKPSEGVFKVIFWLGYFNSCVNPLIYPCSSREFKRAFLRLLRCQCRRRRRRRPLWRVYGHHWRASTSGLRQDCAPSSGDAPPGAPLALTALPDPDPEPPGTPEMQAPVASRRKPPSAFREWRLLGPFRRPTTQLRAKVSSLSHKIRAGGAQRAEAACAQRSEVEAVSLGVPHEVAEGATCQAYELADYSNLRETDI", "assay": "Safety screen", "format": "binding", "description": "(§2) Blood cell counts, kinase profiler, safety screen, bacterial cytotoxicity, Ames, micronucleus assays were performed by the company Eurofins (France)."}, "[5]": {"molecular_target": "PKCγ(h) (Homo sapiens, UniProt P05129)", "assay": "Kinase Profiler", "format": "biochemical", "description": "as §1"}, "[6]": {"molecular_target": "EphA7(h) (Homo sapiens, UniProt Q15375)", "assay": "Kinase Profiler", "format": "biochemical", "description": "(§3) Blood cell counts, kinase profiler, safety screen, bacterial cytotoxicity, Ames, micronucleus assays were performed by the company Eurofins (France). The kinase profiler was performed by the company Eurofins (Discovery, Panlab and Cerep)."}, "[7]": {"molecular_target": "eEF-2K(h) (Homo sapiens, UniProt O00418)", "sequence (O00418 whole entry)": "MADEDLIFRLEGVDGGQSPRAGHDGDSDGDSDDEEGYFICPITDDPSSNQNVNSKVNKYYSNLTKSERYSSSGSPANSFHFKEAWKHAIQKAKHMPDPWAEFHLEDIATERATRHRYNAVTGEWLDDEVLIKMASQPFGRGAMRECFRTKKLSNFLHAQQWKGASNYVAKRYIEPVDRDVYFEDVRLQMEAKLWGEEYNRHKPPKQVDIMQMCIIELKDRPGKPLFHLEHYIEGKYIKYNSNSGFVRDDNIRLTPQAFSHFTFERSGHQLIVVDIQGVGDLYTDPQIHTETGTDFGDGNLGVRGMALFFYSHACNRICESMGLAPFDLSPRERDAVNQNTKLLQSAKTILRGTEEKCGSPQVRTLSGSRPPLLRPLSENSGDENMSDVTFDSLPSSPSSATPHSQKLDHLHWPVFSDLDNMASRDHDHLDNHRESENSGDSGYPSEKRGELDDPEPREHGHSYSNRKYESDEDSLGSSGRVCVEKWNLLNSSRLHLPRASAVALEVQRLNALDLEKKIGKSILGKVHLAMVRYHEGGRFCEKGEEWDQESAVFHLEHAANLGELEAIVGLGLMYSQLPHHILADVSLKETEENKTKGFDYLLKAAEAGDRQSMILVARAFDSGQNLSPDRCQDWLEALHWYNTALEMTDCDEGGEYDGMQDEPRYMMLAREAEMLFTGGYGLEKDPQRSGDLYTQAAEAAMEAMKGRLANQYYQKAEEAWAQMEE", "assay": "Kinase Profiler", "format": "biochemical", "description": "as §1"}, "[8]": {"molecular_target": "Serotonin (5-Hydroxytryptamine) 5-HT1B (Homo sapiens, UniProt P28222)", "assay": "Safety screen", "format": "binding", "description": "as §3"}, "[9]": {"molecular_target": "Aurora-A(h) (Homo sapiens, UniProt O14965)", "assay": "Kinase Profiler", "format": "biochemical", "description": "as §3"}, "[10]": {"molecular_target": "TrkA(h) (Homo sapiens, UniProt P04629)", "assay": "Kinase Profiler", "format": "biochemical", "description": "as §1"}, "[11]": {"molecular_target": "GRK7(h) (Homo sapiens, UniProt Q8WTQ7)", "sequence (Q8WTQ7 whole entry)": "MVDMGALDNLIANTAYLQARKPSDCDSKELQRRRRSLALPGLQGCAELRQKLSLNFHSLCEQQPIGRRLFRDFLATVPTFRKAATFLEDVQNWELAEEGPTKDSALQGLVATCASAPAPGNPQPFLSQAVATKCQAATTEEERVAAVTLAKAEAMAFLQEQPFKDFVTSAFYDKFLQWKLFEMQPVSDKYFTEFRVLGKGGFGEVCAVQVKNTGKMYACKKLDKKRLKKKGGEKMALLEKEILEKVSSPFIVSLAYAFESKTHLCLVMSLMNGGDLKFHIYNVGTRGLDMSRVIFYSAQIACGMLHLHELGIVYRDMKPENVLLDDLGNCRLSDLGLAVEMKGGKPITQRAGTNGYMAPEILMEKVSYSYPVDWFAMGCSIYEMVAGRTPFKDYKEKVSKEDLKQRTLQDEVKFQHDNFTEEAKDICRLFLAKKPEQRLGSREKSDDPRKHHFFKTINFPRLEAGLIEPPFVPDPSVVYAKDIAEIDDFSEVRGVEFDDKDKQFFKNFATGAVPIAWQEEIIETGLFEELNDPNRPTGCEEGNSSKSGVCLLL", "assay": "Kinase Profiler", "format": "biochemical", "description": "as §3"}, "[12]": {"molecular_target": "PDGFRα(D842V)(h) (Homo sapiens, UniProt P16234, D842V)", "assay": "Kinase Profiler", "format": "biochemical", "description": "as §1"}, "[13]": {"molecular_target": "PI3K (p110b/p85a)(h) (Homo sapiens, UniProt P42338)", "assay": "Kinase Profiler", "format": "biochemical", "description": "as §3"}, "[14]": {"molecular_target": "NLK(h) (Homo sapiens, UniProt Q9UBE8)", "assay": "Kinase Profiler", "format": "biochemical", "description": "as §1"}, "[15]": {"molecular_target": "TAO2(h) (Homo sapiens, UniProt Q9UL54)", "assay": "Kinase Profiler", "format": "biochemical", "description": "as §3"}, "[16]": {"molecular_target": "NEK7(h) (Homo sapiens, UniProt Q8TDX7)", "assay": "Kinase Profiler", "format": "biochemical", "description": "as §1"}, "[17]": {"molecular_target": "MLK2(h) (Homo sapiens, UniProt Q02779)", "assay": "Kinase Profiler", "format": "biochemical", "description": "as §3"}, "[18]": {"molecular_target": "PI3K (p110a/p85a)(m) (Mus musculus, UniProt P42337)", "assay": "Kinase Profiler", "format": "biochemical", "description": "as §3"}, "[19]": {"molecular_target": "Haspin(h) (Homo sapiens, UniProt Q8TF76)", "assay": "Kinase Profiler", "format": "biochemical", "description": "as §1"}, "[20]": {"system": "Phosphodiesterase PDE4", "assay": "Safety screen", "format": "biochemical, human", "description": "as §2"}, "[21]": {"molecular_target": "Met(D1246H)(h) (Homo sapiens, UniProt P08581, D1228H)", "assay": "Kinase Profiler", "format": "biochemical", "description": "as §1"}, "[22]": {"molecular_target": "PDHK4(h) (Homo sapiens, UniProt Q16654)", "assay": "Kinase Profiler", "format": "biochemical", "description": "as §3"}, "[23]": {"molecular_target": "p70S6K(h) (Homo sapiens, UniProt P23443)", "sequence (P23443 whole entry)": "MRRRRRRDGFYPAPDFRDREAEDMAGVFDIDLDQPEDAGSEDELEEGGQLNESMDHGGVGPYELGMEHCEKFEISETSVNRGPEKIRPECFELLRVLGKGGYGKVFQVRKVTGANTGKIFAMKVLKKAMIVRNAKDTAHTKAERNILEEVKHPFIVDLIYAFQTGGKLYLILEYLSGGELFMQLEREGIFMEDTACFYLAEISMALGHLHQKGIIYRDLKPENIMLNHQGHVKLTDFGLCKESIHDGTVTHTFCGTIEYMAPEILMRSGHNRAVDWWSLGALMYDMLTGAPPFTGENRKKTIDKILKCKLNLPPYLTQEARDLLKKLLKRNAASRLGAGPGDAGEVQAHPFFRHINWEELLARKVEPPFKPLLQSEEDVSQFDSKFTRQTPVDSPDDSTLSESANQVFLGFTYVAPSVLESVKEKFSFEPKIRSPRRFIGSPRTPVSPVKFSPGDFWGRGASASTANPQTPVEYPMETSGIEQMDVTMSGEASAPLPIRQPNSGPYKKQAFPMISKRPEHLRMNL", "assay": "Kinase Profiler", "format": "biochemical", "description": "as §3"}, "[24]": {"molecular_target": "PDHK2(h) (Homo sapiens, UniProt Q15119)", "assay": "Kinase Profiler", "format": "biochemical", "description": "as §3"}, "[25]": {"molecular_target": "Potassium Channel hERG (Homo sapiens, UniProt Q12809)", "assay": "Safety screen", "format": "binding", "description": "as §3"}, "[26]": {"molecular_target": "IRAK4(h) (Homo sapiens, UniProt Q9NWZ3)", "assay": "Kinase Profiler", "format": "biochemical", "description": "as §1"}, "[27]": {"molecular_target": "TLK1(h) (Homo sapiens, UniProt Q9UKI8)", "sequence (Q9UKI8 whole entry)": "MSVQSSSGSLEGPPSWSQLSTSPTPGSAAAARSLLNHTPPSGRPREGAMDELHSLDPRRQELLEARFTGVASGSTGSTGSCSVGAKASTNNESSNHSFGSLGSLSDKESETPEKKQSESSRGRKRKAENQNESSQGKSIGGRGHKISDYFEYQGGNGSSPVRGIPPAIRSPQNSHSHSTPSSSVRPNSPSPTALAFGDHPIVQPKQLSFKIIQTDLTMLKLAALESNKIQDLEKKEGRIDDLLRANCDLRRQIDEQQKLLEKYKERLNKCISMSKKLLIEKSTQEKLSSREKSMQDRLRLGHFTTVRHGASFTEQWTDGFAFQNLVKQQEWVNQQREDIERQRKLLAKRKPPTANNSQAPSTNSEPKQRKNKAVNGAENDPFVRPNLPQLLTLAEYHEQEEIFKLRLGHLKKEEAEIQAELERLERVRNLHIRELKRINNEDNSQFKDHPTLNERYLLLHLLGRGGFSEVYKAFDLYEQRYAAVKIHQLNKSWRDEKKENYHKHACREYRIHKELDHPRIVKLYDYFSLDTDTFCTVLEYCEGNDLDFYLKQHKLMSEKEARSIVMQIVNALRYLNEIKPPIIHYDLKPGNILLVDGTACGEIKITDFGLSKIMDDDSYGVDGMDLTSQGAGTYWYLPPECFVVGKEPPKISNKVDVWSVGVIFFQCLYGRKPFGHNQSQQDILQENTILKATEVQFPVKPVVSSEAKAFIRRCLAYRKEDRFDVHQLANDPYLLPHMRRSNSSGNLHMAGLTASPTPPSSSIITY", "assay": "Kinase Profiler", "format": "biochemical", "description": "as §1"}, "[28]": {"molecular_target": "Cyclooxygenase COX-2 (Homo sapiens, UniProt P35354)", "assay": "Safety screen", "format": "biochemical", "description": "as §3"}, "[29]": {"molecular_target": "B-Raf(V599E)(h) (Homo sapiens, UniProt P15056, V600E)", "assay": "Kinase Profiler", "format": "biochemical", "description": "as §3"}, "[30]": {"molecular_target": "EphA1(h) (Homo sapiens, UniProt P21709)", "assay": "Kinase Profiler", "format": "biochemical", "description": "as §1"}, "[31]": {"molecular_target": "NIM1(h) (Homo sapiens, UniProt Q8IY84)", "assay": "Kinase Profiler", "format": "biochemical", "description": "as §1"}, "[32]": {"molecular_target": "HIPK1(h) (Homo sapiens, UniProt Q86Z02)", "assay": "Kinase Profiler", "format": "biochemical", "description": "as §1"}, "[33]": {"molecular_target": "MAPKAP-K3(h) (Homo sapiens, UniProt Q16644)", "assay": "Kinase Profiler", "format": "biochemical", "description": "as §1"}, "[34]": {"molecular_target": "Bradykinin B2 (Homo sapiens, UniProt P30411)", "sequence (P30411 whole entry)": "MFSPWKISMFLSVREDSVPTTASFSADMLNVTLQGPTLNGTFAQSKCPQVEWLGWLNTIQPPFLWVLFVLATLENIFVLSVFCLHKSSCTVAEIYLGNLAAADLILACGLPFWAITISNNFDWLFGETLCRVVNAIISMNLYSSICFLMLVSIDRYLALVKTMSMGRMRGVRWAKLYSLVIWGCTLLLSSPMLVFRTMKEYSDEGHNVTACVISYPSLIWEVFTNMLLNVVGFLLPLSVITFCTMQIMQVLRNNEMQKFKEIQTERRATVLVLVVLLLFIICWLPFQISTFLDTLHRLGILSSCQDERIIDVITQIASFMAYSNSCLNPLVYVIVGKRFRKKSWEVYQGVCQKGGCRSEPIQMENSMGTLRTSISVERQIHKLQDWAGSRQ", "assay": "Safety screen", "format": "binding", "description": "as §3"}, "[35]": {"molecular_target": "TNIK(h) (Homo sapiens, UniProt Q9UKE5)", "sequence (Q9UKE5 whole entry)": "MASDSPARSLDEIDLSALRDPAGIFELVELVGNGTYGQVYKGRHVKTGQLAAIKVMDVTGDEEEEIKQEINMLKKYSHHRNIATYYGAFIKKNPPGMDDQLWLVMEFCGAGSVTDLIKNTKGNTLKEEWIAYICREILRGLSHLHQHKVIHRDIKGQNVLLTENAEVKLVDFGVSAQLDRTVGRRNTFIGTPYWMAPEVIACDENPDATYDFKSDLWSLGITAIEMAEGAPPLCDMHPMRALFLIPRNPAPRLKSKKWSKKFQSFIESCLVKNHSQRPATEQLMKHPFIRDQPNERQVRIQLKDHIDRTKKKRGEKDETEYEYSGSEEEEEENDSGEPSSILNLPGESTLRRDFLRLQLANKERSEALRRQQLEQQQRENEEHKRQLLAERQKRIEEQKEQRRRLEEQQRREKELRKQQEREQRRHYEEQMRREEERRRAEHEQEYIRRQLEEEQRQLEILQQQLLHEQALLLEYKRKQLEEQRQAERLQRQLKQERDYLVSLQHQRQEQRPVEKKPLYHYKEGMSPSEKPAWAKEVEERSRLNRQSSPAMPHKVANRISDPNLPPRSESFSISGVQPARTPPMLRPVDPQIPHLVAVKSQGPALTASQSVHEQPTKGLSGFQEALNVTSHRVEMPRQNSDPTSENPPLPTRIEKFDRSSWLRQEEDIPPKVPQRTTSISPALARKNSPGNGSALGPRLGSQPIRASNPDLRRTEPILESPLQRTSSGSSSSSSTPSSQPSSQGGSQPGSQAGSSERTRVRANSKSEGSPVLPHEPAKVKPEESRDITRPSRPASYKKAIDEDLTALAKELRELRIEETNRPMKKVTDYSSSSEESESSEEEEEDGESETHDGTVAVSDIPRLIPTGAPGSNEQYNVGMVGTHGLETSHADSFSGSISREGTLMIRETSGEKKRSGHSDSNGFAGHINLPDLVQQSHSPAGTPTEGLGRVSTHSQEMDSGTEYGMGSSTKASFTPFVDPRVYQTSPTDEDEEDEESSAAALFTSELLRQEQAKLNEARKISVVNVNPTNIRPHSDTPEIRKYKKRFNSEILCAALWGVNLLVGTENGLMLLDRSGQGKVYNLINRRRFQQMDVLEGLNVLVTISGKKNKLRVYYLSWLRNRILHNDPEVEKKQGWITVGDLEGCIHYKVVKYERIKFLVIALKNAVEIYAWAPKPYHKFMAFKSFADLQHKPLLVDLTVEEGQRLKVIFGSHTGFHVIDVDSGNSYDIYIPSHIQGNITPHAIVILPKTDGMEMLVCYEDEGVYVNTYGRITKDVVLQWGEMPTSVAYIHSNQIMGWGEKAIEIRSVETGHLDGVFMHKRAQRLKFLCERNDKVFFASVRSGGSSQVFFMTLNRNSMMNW", "assay": "Kinase Profiler", "format": "biochemical", "description": "as §1"}, "[36]": {"molecular_target": "Adenosine A2A (Homo sapiens, UniProt P29274)", "assay": "Safety screen", "format": "binding", "description": "as §1"}}}
{"smiles": "COc1ccc(OC)c(NS(=O)(=O)c2ccc(NC(=O)CCSc3ccc(C)cc3)cc2)c1", "note": "[Compound A41]", "values": [{"measurement": "Activity(%)", "setting": "[1]", "result": 81, "unit": "%"}, {"measurement": "Activity(%)", "setting": "[2]", "result": 112, "unit": "%"}, {"measurement": "Activity(%)", "setting": "[3]", "result": 128, "unit": "%"}, {"measurement": "% inh.", "setting": "[4]", "result": 21, "unit": "%"}, {"measurement": "Activity(%)", "setting": "[5]", "result": 112, "unit": "%"}, {"measurement": "Activity(%)", "setting": "[6]", "result": 108, "unit": "%"}, {"measurement": "Activity(%)", "setting": "[7]", "result": 97, "unit": "%"}, {"measurement": "% inh.", "setting": "[8]", "result": 15, "unit": "%"}, {"measurement": "Activity(%)", "setting": "[9]", "result": 124, "unit": "%"}, {"measurement": "Activity(%)", "setting": "[10]", "result": 99, "unit": "%"}, {"measurement": "Activity(%)", "setting": "[11]", "result": 100, "unit": "%"}, {"measurement": "Activity(%)", "setting": "[12]", "result": 112, "unit": "%"}, {"measurement": "Activity(%)", "setting": "[13]", "result": 101, "unit": "%"}, {"measurement": "Activity(%)", "setting": "[14]", "result": 99, "unit": "%"}, {"measurement": "Activity(%)", "setting": "[15]", "result": 108, "unit": "%"}, {"measurement": "Activity(%)", "setting": "[16]", "result": 97, "unit": "%"}, {"measurement": "Activity(%)", "setting": "[17]", "result": 109, "unit": "%"}, {"measurement": "Activity(%)", "setting": "[18]", "result": 102, "unit": "%"}, {"measurement": "Activity(%)", "setting": "[19]", "result": 116, "unit": "%"}, {"measurement": "% inh.", "setting": "[20]", "result": 4, "unit": "%"}, {"measurement": "Activity(%)", "setting": "[21]", "result": 115, "unit": "%"}, {"measurement": "Activity(%)", "setting": "[22]", "result": 93, "unit": "%"}, {"measurement": "Activity(%)", "setting": "[23]", "result": 103, "unit": "%"}, {"measurement": "Activity(%)", "setting": "[24]", "result": 96, "unit": "%"}, {"measurement": "% inh.", "setting": "[25]", "result": 22, "unit": "%"}, {"measurement": "Activity(%)", "setting": "[26]", "result": 99, "unit": "%"}, {"measurement": "Activity(%)", "setting": "[27]", "result": 102, "unit": "%"}, {"measurement": "% inh.", "setting": "[28]", "result": 11, "unit": "%"}, {"measurement": "Activity(%)", "setting": "[29]", "result": 87, "unit": "%"}, {"measurement": "Activity(%)", "setting": "[30]", "result": 87, "unit": "%"}, {"measurement": "Activity(%)", "setting": "[31]", "result": 105, "unit": "%"}, {"measurement": "Activity(%)", "setting": "[32]", "result": 110, "unit": "%"}, {"measurement": "Activity(%)", "setting": "[33]", "result": 112, "unit": "%"}, {"measurement": "% inh.", "setting": "[34]", "result": 1, "unit": "%"}, {"measurement": "Activity(%)", "setting": "[35]", "result": 94, "unit": "%"}, {"measurement": "% inh.", "setting": "[36]", "result": 16, "unit": "%"}]}
